Reference: patent US6544987B2, “Compounds, compositions, and methods for stimulating neuronal growth and elongation” (Pfizer Inc., priority 1999, dated 2003)
Values joined by “and” are separate entries in the source; they are usually repeats but may differ in a detail not shown here. Equal values may be shown once.

Legend:
FKBP12 [1] = target: T1, FKBP12 (Homo sapiens, UniProt P62942); test: Affinity for FKBP-12 (Ki), succinyl-Ala-Leu-Pro-Phe-pNA chymotrypsin-coupled assay; format: biochemical; parameters: key to FKBP12 inhibition (in Kiapps column): NI: no inhibition; NSI: no significant inhibition; conditions: for Ki: Table 2, read-out: FKBP12 Kiapps
T1 sequence (P62942 whole entry, species assumed): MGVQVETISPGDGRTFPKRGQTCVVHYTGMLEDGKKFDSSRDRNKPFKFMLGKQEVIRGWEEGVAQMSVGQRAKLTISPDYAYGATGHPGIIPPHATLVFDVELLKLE
Method: In a quartz cuvette, a final 1 mL buffer concentration was reached (50 mM Hepes, 100 mM NaCl, pH 8.0). Within this final reaction volume, 3.5 μL […] FKBP-12 (in 50 mM Hepes, 100 mM NaCl, pH 8.0) and 10 μL test compound in DMSO were added. The reaction was initiated by adding 10 μL chymotrypsin (100 mg/mL in 1 mM HCl) followed by 5 μL (1-20 mM succinyl-Ala-Leu-Pro-Phe-pNA in 240 mM LiCl/TFE).
The absorbance at 390 nm versus time was monitored for up to 400 seconds. Rate constants were determined from the absorbance versus time plots generated.

[2] = tested on: PC12 rat pheochromocytoma cells; test: Neurite outgrowth activity in PC12 rat pheochromocytoma assay; format: cell-based; conditions: PC-12 cells; active concentration range
Method: For example, compounds may be tested to determine their neurotrophic activity using the method described by Lyons et al., Proc. Natl. Acad. Sci., 91:3191-3195 (1994). In this rat pheochromocytoma assay for neurite outgrowth, PC12 rat pheochromocytoma cells are maintained at 37° C. and 5% CO2 in Dulbecco's modified Eagle's medium (DMEM) supplemented with 10% heat-inactivated horse serum and 5% heat-inactivated fetal bovine serum. Cells are then plated, coated at 10^5 per 35 mm culture well with rat tail collagen at […], and allowed to attach. Medium is then replaced with DMEM supplemented with 2% horse serum, 1% fetal bovine serum, nerve growth factor (NGF), and/or varying concentrations of test compounds. The control cultures are administered NGF without any of the test compounds.

FKBP12 [3] = target: T1, FKBP12; test: Binding to FKBP by microcalorimetry
Method: Binding of compounds to FKBP may be measured directly using microcalorimetry. Calorimetric titrations are carried out using the MCS-ITC instrument (MicroCal Inc., Northhampton, Mass.). The titrations may be conducted as follows. Protein dialysate is degassed for 15 minutes using MicroCal equipment. Stock inhibitor solution is added to co-solvent (typically DMSO) and degassed dialysate, followed by brief sonication, to produce the final inhibitor solutions to be used in the titrations. Final inhibitor solutions are in the concentration range 10 to 80 μM. Dialyzed protein is added to co-solvent and degassed dialysate to produce FKBP12 solutions in the concentration range 200 to 1600 μM. As both solutions are prepared using degassed dialysate, no additional degassing of the solutions is performed. Co-solvent is added to the protein solutions to maintain a fixed co-solvent concentration throughout the course of the titration. Protein is titrated into inhibitor using a 125-μL injection syringe. The titrations are conducted with the ligand in the cell due to low solubility of inhibitors. Typically, a preliminary 2-μL injection is followed by fifteen 8-μL injections made at varying injection intervals. A full set of dilution controls is conducted for each titration. An appropriate volume of co-solvent is added to degassed dialysate to produce the buffered co-solvent solution used to obtain heats of dilution of the reactants. After correcting for the heats of dilution and deletion of the preliminary injection, the titration results are fitted using the “One Set of Sites Model” in the ORIGIN software package supplied with the instrument.

FKBP12 [4] = target: T1, FKBP12; test: Rotamase inhibition assay (N-succinyl-Ala-Ala-Pro-Phe-p-nitroanilide, chymotrypsin-coupled); format: biochemical; conditions: Table 1; read-out: Rotamase Ki(app)
Method: In the rotamase inhibition assay, isomerization of an artificial substrate N-succinyl-Ala-Ala-Pro-Phe-p-nitroanilide is followed spectrophotometrically. The assay includes the cis form of the substrate, FKBP12, the compound being tested, and chymotrypsin. Chymotrypsin is able to cleave p-nitroaniline from the trans form of the substrate, but not from the cis form. Release of p-nitroaniline is measured spectrophotometrically. Using this assay, various amounts of the FKBP rotamase-inhibiting compounds of formula (I) were added to cis-N-succinyl-alanine-alanine-proline-phenylalanine-para-nitroaniline (BACHEM, 3132 Kashiwa Street, Torrance, Calif. 90505) in the presence of FKBP12 and chymotrypsin. Spectrophotometric measurements of p-nitroaniline concentrations allowed estimation of the apparent Ki values, which are provided in Table 1 below.

[5] = Solubility noted in FKBP12 assay table; format: physicochemical; conditions: read-out: Sol (solubility)

Ki (FKBP12 [1]) | Kd (FKBP12 [3]) [nM] | Ki (FKBP12 [4]) [nM] | FKBP12 inhibition (in Kiapps column) (FKBP12 [1]; at 1 μM) | solubility [5] [µM] | Structure (SMILES) | Neurite-Outgrowth Activity (PC-12) [2] [µM]
200 nM and 180 nM | 1200 | 200 |  |  | COc1cc(NS(=O)(=O)N2CCCC[C@H]2C(=O)OCCCCc2ccccc2)cc(OC)c1OC [Compound 25, 1-(3,4,5-Trimethoxy-phenylsulfamoyl)-piperidine-2S-carboxylic acid 4-phenyl-butyl ester] | 0.001 to 1
2790 nM and 1100 nM | 4500 | 2790 |  |  | CCC(C)(C)NS(=O)(=O)N1CCC[C@H]1C(=O)OCCCc1cccnc1 [Compound 31, 1-(1,1-Dimethyl-propylsulfamoyl)-pyrrolidine-2S-carboxylic acid 3-pyridin-3-yl-propyl ester] | 0.001 to 1
3960 nM | 14000 |  |  |  | O=C(OCCCc1cccnc1)[C@@H]1CCCN1S(=O)(=O)Nc1ccccc1 [Compound 33, 1-Phenylsulfamoyl-pyrrolidine-2S-carboxylic acid 3-pyridin-3-yl-propyl ester] | 0.001 to 1
 |  |  | NI | < 30 | COc1cc(NS(=O)(=O)N2[C@@H]3CC[C@@H](C3)[C@H]2C(=O)OCCCCc2ccccc2)cc(OC)c1OC [Compound 84, 2-(3,4,5-Trimethoxy-phenylsulfamoyl)-2-aza-bicyclo[2.2.1]heptane-exo-3-carboxylic acid 4-phenyl-butyl ester] | 
